Source: patent US20100160359A1, “Modulators of Metabolism and the Treatment of Disorders Related Thereto” (ARENA PHARMACEUTICALS, INC., priority 2005, published 2010)
pIC50: −log10 of the molar value. Converted amounts (≈) assume the structure as drawn.

Legend:
[1] = target: CYP2D6 (Homo sapiens, UniProt P10635); experiment: P450 inhibition screening assay, CYP2D6; type: in vitro ADME; conditions: cDNA expressed human enzyme, fluorescent substrate AMMC
Protocol: (§1) The P450 inhibition screening assay was performed in 96-well microtiter plates by using cDNA expressed human enzymes (CYP1A2, 2C9, 2C19, 2D6 and 3A4). […] The enzymatic reaction was initiated by adding individual P450 enzymes pre-mixed with P450-specific fluorescent substrates, and stopped by adding acetonitrile (or NaOH for DBF assays) to the reaction mixture after incubation at 37° C. for a given amount of time. The fluorescence of metabolites was measured on a Biotek fluorescence reader. The results were expressed as inhibition percentage relative to the control (no test compound). IC50 values were estimated from the concentration response curve. […] Test compounds are classified into three categories based on their IC50 values.

[2] = target: T1, CYP1A2 (Homo sapiens, UniProt P05177); experiment: P450 inhibition screening assay, CYP1A2; type: in vitro ADME; conditions: cDNA expressed human enzyme, fluorescent substrate CEC
T1 sequence (P05177 1-516): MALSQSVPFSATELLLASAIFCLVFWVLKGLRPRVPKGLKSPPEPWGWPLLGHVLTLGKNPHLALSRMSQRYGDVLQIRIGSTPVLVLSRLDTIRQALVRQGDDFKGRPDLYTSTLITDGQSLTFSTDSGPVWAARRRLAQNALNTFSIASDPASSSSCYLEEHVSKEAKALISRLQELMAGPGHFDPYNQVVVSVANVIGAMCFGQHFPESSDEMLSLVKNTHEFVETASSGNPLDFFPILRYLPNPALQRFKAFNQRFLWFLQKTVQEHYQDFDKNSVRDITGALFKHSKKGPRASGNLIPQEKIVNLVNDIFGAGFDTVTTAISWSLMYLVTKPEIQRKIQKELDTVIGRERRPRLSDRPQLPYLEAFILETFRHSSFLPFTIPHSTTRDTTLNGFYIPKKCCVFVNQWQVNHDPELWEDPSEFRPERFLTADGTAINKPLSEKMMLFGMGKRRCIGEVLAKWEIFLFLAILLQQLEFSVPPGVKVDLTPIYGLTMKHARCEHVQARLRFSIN
Protocol: as §1

[3] = target: CYP2C19 (Homo sapiens, UniProt P33261); experiment: P450 inhibition screening assay, CYP2C19; type: in vitro ADME; conditions: cDNA expressed human enzyme, fluorescent substrate DBF
Chain of CYP2C19 (P33261 whole entry): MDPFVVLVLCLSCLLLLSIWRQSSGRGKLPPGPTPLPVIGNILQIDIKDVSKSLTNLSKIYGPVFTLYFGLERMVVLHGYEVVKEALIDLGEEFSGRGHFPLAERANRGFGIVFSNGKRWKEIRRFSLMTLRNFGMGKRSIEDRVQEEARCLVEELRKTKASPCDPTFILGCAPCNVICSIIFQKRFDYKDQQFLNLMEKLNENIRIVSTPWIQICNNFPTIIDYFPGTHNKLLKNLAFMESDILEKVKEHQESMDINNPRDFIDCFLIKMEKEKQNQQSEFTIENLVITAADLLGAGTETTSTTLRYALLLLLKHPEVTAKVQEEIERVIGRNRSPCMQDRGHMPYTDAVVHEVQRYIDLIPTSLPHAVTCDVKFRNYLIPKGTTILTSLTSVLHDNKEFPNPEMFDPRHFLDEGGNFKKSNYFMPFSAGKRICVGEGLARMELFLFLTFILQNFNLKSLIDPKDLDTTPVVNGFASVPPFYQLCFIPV
Protocol: as §1

[4] = target: CYP3A4 (Homo sapiens, UniProt P08684); experiment: P450 inhibition screening assay, CYP3A4; type: in vitro ADME; conditions: cDNA expressed human enzyme, fluorescent substrates
Chain of CYP3A4 (P08684 whole entry): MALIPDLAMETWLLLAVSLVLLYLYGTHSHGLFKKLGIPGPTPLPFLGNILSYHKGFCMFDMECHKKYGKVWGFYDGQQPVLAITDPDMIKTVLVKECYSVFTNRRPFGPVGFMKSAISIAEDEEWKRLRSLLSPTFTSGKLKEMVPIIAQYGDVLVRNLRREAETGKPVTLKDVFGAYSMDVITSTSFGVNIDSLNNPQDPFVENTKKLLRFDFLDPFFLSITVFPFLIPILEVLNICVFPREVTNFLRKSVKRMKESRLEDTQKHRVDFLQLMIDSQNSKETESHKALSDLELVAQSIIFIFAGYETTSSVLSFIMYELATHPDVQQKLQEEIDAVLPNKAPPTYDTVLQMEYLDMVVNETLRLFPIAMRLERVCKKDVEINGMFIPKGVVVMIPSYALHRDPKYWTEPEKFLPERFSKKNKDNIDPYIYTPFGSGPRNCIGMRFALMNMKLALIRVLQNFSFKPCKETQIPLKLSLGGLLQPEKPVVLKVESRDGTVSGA
Protocol: as §1

[5] = target: CYP2C9 (Homo sapiens, UniProt P11712); experiment: P450 inhibition screening assay, CYP2C9; type: in vitro ADME; conditions: cDNA expressed human enzyme, fluorescent substrate DBF; read-out: IC50 against the CYP2C9 enzyme
Chain of CYP2C9 (P11712 whole entry): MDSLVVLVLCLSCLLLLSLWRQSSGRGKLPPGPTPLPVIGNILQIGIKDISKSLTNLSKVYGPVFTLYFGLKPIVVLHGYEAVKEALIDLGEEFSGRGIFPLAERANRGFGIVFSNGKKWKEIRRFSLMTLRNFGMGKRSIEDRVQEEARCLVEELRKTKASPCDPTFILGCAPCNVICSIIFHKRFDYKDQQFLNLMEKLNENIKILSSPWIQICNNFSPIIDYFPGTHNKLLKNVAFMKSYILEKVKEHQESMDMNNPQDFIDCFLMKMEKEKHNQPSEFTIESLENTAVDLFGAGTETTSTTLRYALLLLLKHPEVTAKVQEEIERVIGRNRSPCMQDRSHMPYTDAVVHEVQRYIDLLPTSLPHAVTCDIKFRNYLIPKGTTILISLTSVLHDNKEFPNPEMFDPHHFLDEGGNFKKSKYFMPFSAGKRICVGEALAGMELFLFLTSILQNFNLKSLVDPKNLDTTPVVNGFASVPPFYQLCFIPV
Protocol: as §1

[6] = test system: Male Sprague Dawley rats; experiment: Oral glucose tolerance test (oGTT) in rats; type: in vivo; conditions: rat oGTT, dextrose 3 g/kg
Protocol: General Procedure—Oral Glucose Tolerance Test (oGTT)
Male Sprague Dawley rats (Harlan, San Diego, Calif.) weighing approximately 350-375 g were fasted for 16 hours and randomly grouped (n=6) to receive a RUP3 agonist at 0.3, 3 or 30 mg/kg. Compounds were delivered orally via a gavage needle (p.o., volume 2 mL/kg). At time 0, levels of blood glucose were assessed using a glucometer (Accu-Chek Advantage, Roche Diagnostics), and rats were administered either vehicle (20% hydroxypropyl-beta-cyclodextrin) or test compound. Thirty minutes after administration of test compound, levels of blood glucose were again assessed, and rats were administered dextrose orally at a dose of 3 g/kg. Blood glucose measurements were then taken 30 min, 60 min, and 120 min after this time.

[7] = Solubility determination in water (HPLC); type: physicochemical; conditions: thermodynamic from solid, about 25° C., equilibrated no less than 12 hours, read-out: aqueous solubility
Protocol: The vial contents were mixed for 30 seconds using a VWR mini vortexter followed by sonication (Branson 1510) for 1 minutes. Vials were placed into a constant temperature bath (i.e., about 25° C.) and allowed to equilibrate for no less than 12 hours. The resulting suspensions were transferred to eppendorf tubes each equipped with a 0.2 μm nylon filter (Costar 8168) and were centrifuged for 10 minutes at 14,000 rpms. The supernatant from each eppendorf tube was collected and diluted with HPLC grade acetonitrile with dilution factor of 200, 400 or 500. Each solution was analyzed by an HPLC method. […]
Quantification was effected by comparison of the HPLC peak area for each test solution with the peak area taken from a standard plot of concentration versus peak area for standards of known concentration. As is conventional, the standard concentrations for 4-[5-methyl-6-(2-methyl-pyridin-3-yloxy)-pyrimidin-4-yloxy]piperidine-1-carboxylic acid isopropyl ester were selected to fall within a linear range of concentration versus absorbance for the UV detector employed. […]

Chain of CYP2D6 (P10635 whole entry): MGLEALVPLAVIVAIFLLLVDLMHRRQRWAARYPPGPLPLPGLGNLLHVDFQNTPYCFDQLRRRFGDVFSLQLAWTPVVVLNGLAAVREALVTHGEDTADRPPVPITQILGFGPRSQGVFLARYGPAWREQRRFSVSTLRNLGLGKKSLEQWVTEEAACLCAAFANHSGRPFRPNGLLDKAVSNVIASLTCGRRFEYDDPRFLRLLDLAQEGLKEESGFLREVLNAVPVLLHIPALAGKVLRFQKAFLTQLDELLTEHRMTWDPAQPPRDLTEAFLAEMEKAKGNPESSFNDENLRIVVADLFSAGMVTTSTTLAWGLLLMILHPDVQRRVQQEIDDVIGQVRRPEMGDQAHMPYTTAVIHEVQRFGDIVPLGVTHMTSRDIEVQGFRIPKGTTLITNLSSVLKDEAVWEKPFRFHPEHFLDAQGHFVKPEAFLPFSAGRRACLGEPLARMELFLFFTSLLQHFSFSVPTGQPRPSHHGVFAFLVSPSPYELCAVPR

## Cc1ncccc1Oc1ncnc(OC2CCN(C(=O)OC(C)C)CC2)c1C [4-[5-methyl-6-(2-methyl-pyridin-3-yloxy)-pyrimidin-4-yloxy]-piperidine-1-carboxylic acid isopropyl ester]
[1]
  pIC50: < 4.40
[2]
  pIC50: < 4.40
[3]
  pIC50: ~5.00
[4]
  pIC50: < 4.40
[5]
  pIC50: < 4.82
[6]; 0.3 mg/Kg p.o.
  Mean % Inhibition of Glucose Excursion: 22%
[6]; 3 mg/Kg p.o.
  Mean % Inhibition of Glucose Excursion: 24%
[6]; 30 mg/Kg p.o.
  Mean % Inhibition of Glucose Excursion: 70%
[7]
  solubility: ~40 mg/mL (≈ 104 mM)
